Reference: patent publication US20080145313A1, “Compositions and Methods for the Treatment and Prevention of Neoplastic Disorders” (Genesis Research & Development Corporation Limited, priority 2006, published 2008)
Read-outs that look alike come from different tables or passages of the source.

Experiments:
A549 tumors = assay: Uptake of Alexa 555-labeled siRNA into A549 tumor cells in vivo after intratumoral injection; set-up: species or system mouse; settings: 25 μg i.t.
Description: An Alexa 555-labeled control siRNA was used to determine the cellular uptake of siRNA in tumor tissues when given via intratumoral (i.t.) injection. A549 cells (6−8×10^6 cells) were s.c. inoculated into CD-1 nude mice. Once the A549 tumors reached a size of approximately 100 mm^3, mice were divided into two groups of four mice each. The Alexa 555-labeled Stealth™ siRNA (SEQ ID NO: 5111 (DNA), and SEQ ID NO: 5300 (RNA); Invitrogen Corp.) at a dose of 25 μg (in 50 μl) was injected into tumors of one group. 50 μl PBS was injected into tumors of a negative control group. Tumors were harvested at 6 and 24 h after injection and placed in a labeled cryomold (Tissue-TeK® Crymold®; ProSciTech, Thuringowa, Queensland, Australia) and covered with OCT tissue freezing medium (O.C.T. Compound, ProSciTech). The mold was gently submerged in liquid nitrogen for approximately one minute until OCT turned white and opaque. Tissues were stored at minus 80° C. until sections were cut. Tissues were allowed to reach −20° C. before processing in a Leica Cryostat (Leica Microsystems, Inc., Bannockburn Ill.) at 10 microns. Sections were picked up on Super Frost Plus slides (Esco, Biolab Scientific, New Zealand). After air-drying, sections were fixed in freshly prepared 2% paraformaldehyde solution for 2 minutes at room temperature and then rinsed in PBS to remove the fixative. The slides were mounted in Prolong Gold antifade reagent with DAPI (Molecular Probes®, Invitrogen Corp.), covered with cover slips and sealed to the slides with clear nail polish. The slides were stored at 4° C. in the dark. Fluorescence in the tumor samples was visualized using a Zeiss Axioskop Microscope (Carl Zeiss microimaging, Inc., Thornwood N.Y.) and Leica SP-2 Confocal Microscope (Leica Microsystems, Inc.). Autofluorescence in tumor tissues was very low in all filters examined (green, red and UV). […]

A549 xenograft tumor = assay: Xenograft tumor growth of A549 cells transfected with siRNA pre-implantation in CD-1 nude mice; assay type: in vivo, mouse
Description: To determine the effect of RRM1 knockdown on tumor growth, A549 cells (human lung cancer cell line; ATCC No. CCL-185) were reverse-transfected prior to implantation in CD-1 nude mice. In 175 cm^2 culture flasks, 10×10^6 A549 cells (in RPMI supplemented with 10% fetal calf serum) were added to pre-made lipoplexes. To make lipoplexes, Lipofectamine RNAiMAX in serum-free RPMI was added to an equal volume of serum-free RPMI containing siRNA (RRM1-2; SEQ ID NO: 4831 (DNA), and SEQ ID NO: 5137 (RNA)) and a control siRNA (SEQ ID NO: 4804 (DNA), and SEQ ID NO: 5301 (RNA)). After addition of cells, the final concentration of siRNA in the flask was 10 nM. Untransfected cells served as a further control. Flasks were incubated at 37° C. for 24 h to allow transfection to proceed.
The cells were harvested by trypsinization 24 h after the transfection, washed twice in PBS and viable cells were counted. Equal numbers of cells (1×10^7) were inoculated into CD-1 nude mice (n=7-9). Briefly, 5 to 7 weeks old nude mice were subcutaneously (s.c.) injected in the right flank with A549 cells in 100 μl PBS. Tumor growth was monitored 3 times per week by measuring tumor sizes using a digital caliper. Tumor volume was expressed in […] using the formula: V=a^2×b×0.52, where a and b represent the minimum and maximum tumor diameter, respectively. Mean tumor volumes calculated from each measurement were then plotted in a standard graph to compare the tumor growth of transfected cells to that of control.
To determine the effect of siRNA-mediated knockdown of HK-II, CAD, IMPDH2, RRM2, SLC16A1 and SLC29A1 on tumor growth, A549 cells (human lung cancer cell line; ATCC No. CCL-185) were reverse-transfected prior to implantation in CD-1 nude mice as described above with siRNAs given in SEQ ID NO: 5307 (DNA), and SEQ ID NO: 5304 (RNA) for RRM2, SEQ ID NO: 4932 (DNA), and SEQ ID NO: 5227 (RNA) for ENT1, SEQ ID NO: 4813 (DNA), and SEQ ID NO: 5119 (RNA) for HK-II, SEQ ID NO: 4827 (DNA), and SEQ ID NO: 5133 (RNA) for CAD, SEQ ID NO: 4879 (DNA), and SEQ ID NO: 5182 (RNA) for IMPDH2 and SEQ ID NO: 4924 (DNA), and SEQ ID NO: 5219 (RNA) for SLC16A1, respectively. The siRNA given in SEQ ID NO: 4804 (DNA), and SEQ ID NO: 5301 (RNA) was used as control.
In two separate experiments, CD-1 mice were divided into five groups that received untransfected A549 cells, cells transfected with control siRNA or three different siRNAs (as listed above), respectively. Cells were transfected in vitro using the method as described in Example 8, and 24 h after transfection, s.c. inoculated into mice. Tumor growth was measured 3 times per week. In the first experiment, mice received cells transfected with siRNA targeting RRM2, HK-II or SLC29A1 and were monitored for 33 days. In the second experiment, mice received cells transfected with siRNA targeting CAD, IMPDH2 or SLC16A1, and were monitored for 26 days. […] Similarly, preliminary data indicated tumor growth rate was reduced for the groups receiving cells transfected with siRNA targeting CAD and SLC16A1. Twenty-six days after cell inoculation, the tumor volume for mice with cells transfected with siRNA targeting CAD or SLC16A1 was 97.2±7.3 mm^3 or 110.1±28.1 mm^3, respectively.

A549 xenografted tumors = assay: Intratumoral siRNA treatment of established A549 tumors in CD-1 nude mice; assay type: in vivo, mouse
Description: A549 cells (6−8×10^6 cells) were s.c. inoculated into CD-1 nude mice as described above. When tumors reached an average volume of approximately 100 mm^3, the tumor-bearing mice were randomly assigned into three different treatment groups (RRM1 siRNA, control siRNA and PBS) with 5 to 6 mice in each group. There were no significant differences in tumor volumes among groups prior to the initiation of treatments. Mice were anesthetized by gaseous isoflurane and 50 μl siRNA or PBS was injected directly into tumors using a 30-gauge needle. Two experiments were conducted. In the first experiment (IT#1), the animals received a dose of 50 μg of siRNA in each intratumoral (i.t.) injection and the injections were performed 3 times per week for 2 weeks. In the second experiment (IT#2), 25 μg siRNA was used and mice were injected 3 times per week for 3 weeks. The tumor volume was determined immediately before each injection by perpendicular measurements of the shortest and longest diameters as described above.

A549 cells [1] = assay: Growth inhibition of siRNA-transfected A549 cells, SYBR Green I DNA content; assay type: cell-based, human; settings: 10 nM siRNA; DNA content 96 hours after transfection
Summary of the method: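 A549 cells reverse-transfected with 10 nM Stealth siRNAs via Lipofectamine RNAiMAX, seeded at 5×10^3 cells/cm^2 in RPMI 1640/10% FCS; non-specific siRNA control. DNA content read 96 h post-transfection by SYBR Green I fluorescence (ex 485/em 535 nm) after freeze-thaw and Triton X-100 lysis; mean of three wells.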

HCT-116 cells = assay: 5FU toxicity in HCT-116 cells after TYMS or DHFR knockdown, SYBR Green; assay type: cell-based; settings: cells transfected with 0.1 nM siRNA; 5FU continuous for 3 days; read-out: IC50 value of 5FU following TYMS knockdown, HCT-116
Description: (§1) HCT-116 and A549 cells were transfected as described above with 0.1, 1.0 and 10 nM of three TYMS-specific siRNAs, labeled TYMS-1, TYMS-2 and TYM-3 (SEQ ID NO: 4833-4835 (DNA), and SEQ ID NO: 5139-5141 (RNA), or 1.0 and 10 nM control siRNAs (809-ctrl; SEQ ID NO: 4805 (DNA), and SEQ ID NO: 5302 (RNA) and 81ctrl; SEQ ID NO: 4804 (DNA), and SEQ ID NO: 5301 (RNA)). HCT-116 and A549 cells were also similarly transfected with 0.1, 1.0 and 10 nM of three DHFR-specific siRNAs, labeled DHFR-1, DHFR-2 and DHFR-3 (SEQ ID NO: 4836-4838 (DNA), and SEQ ID NO: 5142-5144 (RNA)), or control siRNA (SEQ ID NO: 4805 (DNA), and SEQ ID NO: 5302 (RNA)). Twenty four hours after transfection, cells were exposed to 5FU using a serial dilution starting at 44 μM, in medium containing either 10% normal FCS or 10% dialyzed FCS as described above. 5FU treatment was continuous for 3 days, at which time cell growth was analyzed by measuring DNA content per well using the SYBR Green assay outlined above. […] This combinatorial inhibitory effect was further increased when experiments were done in medium containing dialyzed FCS (FIGS. 27D-F; FIGS. 28D-F).
(§2) FIGS. 29 and 30 show transfection with DHFR siRNA similarly led to a dose-dependent increase in growth inhibition above that caused by the drug alone (control siRNA-transfected cells) in HCT-116 cells (FIGS. 29A-C), and A549 cells (FIGS. 30A-C). This combinatorial inhibitory effect was further increased when experiments were done in medium containing dialyzed FCS (FIGS. 29D-F; FIGS. 30D-F). The changes in the IC50 value for 5FU in HCT-116 and A549 cells following TYMS knockdown by individual siRNAs are listed in Table 16 below.

A549 cells [2] = assay: 5FU toxicity in A549 cells after TYMS or DHFR knockdown, SYBR Green; assay type: cell-based, human; settings: 5FU continuous for 3 days, read-out: IC50 value of 5FU following TYMS knockdown, A549
Description: as §1, §2

A549 cells [3] = assay: MTT cell proliferation assay of A549 cells transfected with thymidylate synthase siRNA; assay type: cell-based, human; settings: 6, 12 and 50 nM siRNA; 72 h
Description: siRNA mediated silencing in Human A549 cells A549 cells (ATCC No. CCL-185), a human lung cancer cell line, were cultured in RPMI 1640 medium with 5% v/v dialyzed fetal calf serum. Cells were seeded at a density of 2×10^4 cells/100 μl in 96-well plates. Stealth™ siRNA duplexes targeting the thymidylate synthase (SEQ ID NO: 23) gene were transfected at concentrations of 6, 12, and 50 nM into the A549 cells using Lipofectamine 2000 transfection reagent (Invitrogen). After 72 h, cell viability was assessed by measuring cell proliferation using a standard MTT assay (Mosman, J. Immunol. Methods 65:55-63, 1983).

Alexa 555-labeled siRNA: Alexa 555-labeled control Stealth siRNA (Invitrogen) (chain 1 CCGCAACAACGCCATCTATGAGAAA; chain 2 CCGCAACAACGCCAUCUAUGAGAAA; Alexa 555 label, position not given here, Stealth siRNA, chemistry not given here; one strand in two spellings)
cellular uptake of siRNA in tumor tissue (fluorescence) (A549 tumors; 6 h after injection): red punctuations were seen in some tumor cells, indicative of uptake of siRNA
intracellular localization of siRNA fluorescence (A549 tumors; 6 h after injection, overlay with DAPI): located in the cytoplasm around the periphery of the nuclei
cellular uptake of siRNA in tumor tissue (fluorescence) (A549 tumors; 24 h after injection): also observed in the samples taken 24 h after injection, although in slightly lower number of cells

SEQ ID NO: 4804: non-specific control siRNA against an irrelevant target (chain 1 AGCAGAGGGAATTCATCTCTCAGGC; chain 2 AGCAGAGGGAAUUCAUCUCUCAGGC; chemistry not given here; one strand in two spellings) [reference compound]
average tumor size (A549 xenograft tumor; six weeks after the cell inoculation, 10 nM siRNA pre-implantation): 370.7±63.8 mm^3
average tumor size (A549 xenograft tumor; thirty-three days after the cell inoculation, preliminary data): 172.3±36.1 mm^3
tumor volume (A549 xenograft tumor; twenty-six days after cell inoculation, preliminary data): 154.3±23.7 mm^3
average tumor volume (A549 xenografted tumors; IT#1: 50 μg i.t. 3 times per week for 2 weeks, day 15 after treatment initiation): 238.7±41.4 mm^3
tumor volume (A549 xenografted tumors; IT#2: 25 μg i.t. 3 times per week for 3 weeks, day 21 post-treatment initiation): 248.9±37.3 mm^3

SEQ ID NO: 4833: siRNA targeting TYMS (chain 1 AGCAGAGGGAATTCATCTCTCAGGC; chain 2 AGCAGAGGGAAUUCAUCUCUCAGGC; chemistry not given here; one strand in two spellings)
Growth Inhibition in A549 cells (A549 cells [1]): + (inhibits by at least 50%)
IC50 (HCT-116 cells): 100 nM
IC50 (A549 cells [2]; cells transfected with 0.1 nM siRNA): 340 nM
IC50 (A549 cells [2]; cells transfected with 1 nM siRNA): 110 nM
IC50 (A549 cells [2]; cells transfected with 10 nM siRNA): 140 nM
cell growth (MTT assay) (A549 cells [3]): dose-dependent inhibition of cell growth
